Source: article PMC12388523, “Flavonoids and Sesquiterpene Lactones from Lychnophora ericoides (Arnica-Do-Cerrado) and Their In Vitro Effects on Multiple Myeloma and Acute Myeloid Leukemia” (Metabolites, 2025)

Columns and labels:
MOLM-13 cells [1] = experiment: Metabolic activity, resazurin staining, MOLM-13; format: cell-based
Procedure: [The source words this procedure for another cell line and reports this cell line under the same test.] (§1) Acute myeloid leukemia cell line HL-60 and multiple myeloma cell lines AMO-1 and KMS-12-PE were obtained from the German Collection of Microorganisms and Cell Cultures (DSMZ), Braunschweig, Germany, and non-tumorigenic stromal cell line HS-5 was acquired from the American Type Culture Collection (ATCC, Manassas, VA, USA). All cell lines were cultured in RPMI 1640 medium without phenol red (Pan Biotech, Aidenbach, Germany), supplemented with 2 mM glutamine, 100 U/mL penicillin, 100 µg/mL streptomycin (Sigma-Aldrich, St. Louis, MO, USA), and 10% fetal bovine serum (FBS Maximus, Catus Biotech GmbH, Tutzing, Germany) at 37 °C in a humidified atmosphere of 5% CO2/95% air. Cells were fed twice weekly. Logarithmically growing cells were resuspended at 1 × 10^5 cells/mL, plated in triplicate in round-bottom 96-well plates (100 µL per well; Falcon, Becton Dickinson, Franklin Lakes, NJ, USA), and incubated at 37 °C in 5% CO2/95% air for 2 h. Subsequently, the compounds were adjusted in the cell culture medium to reach the final concentrations in a total volume of 150 µL and incubated for an additional 72 h. Cell proliferation was assessed by [^3H]-thymidine uptake. Each well was exposed to 2 µCi [^3H]-thymidine (Hartmann Analytic, Braunschweig, Germany) during the final 12–16 h of incubation. Cells were harvested using a semi-automated device, and [^3H]-thymidine incorporation (expressed in counts per minute, cpm) was measured with a scintillation counter (MicroBeta TriLux, PerkinElmer, Waltham, MA, USA). Metabolic activity was assessed by resazurin staining. Resazurin (Carl Roth, Karlsruhe, Germany) was dissolved in distilled water at a concentration of 0.1 mg/mL, and 15 µL of this solution was added to each well, followed by a 2 h incubation at 37 °C. Relative fluorescence units (RFUs) were measured using a Synergy H1 plate reader equipped with a 560 nm excitation/590 nm emission filter set (BioTek; Agilent, Santa Clara, CA, USA). Proliferation and metabolic activity in the absence of compounds were defined as 100% (control), and the values for compound-treated samples were expressed as percentages relative to the control. Selectivity indices were calculated by dividing the IC50 value of each compound against HS-5 cells through the IC50 values against the investigated cell lines.
(§2) The Wilcoxon Rank Sum Test was used to analyze proliferation and metabolic activity in the absence and presence of varying compound concentrations (NCSS 2007 software, version 07.1.2, Kaysville, UT, USA). A p-value < 0.05 was considered statistically significant. IC50 values were calculated using GraphPad Prism 10.1.2. This software reports 95% confidence intervals instead of standard errors. […] Nonetheless, the figures clearly illustrate the IC50 values due to the narrow concentration range tested.
(§3) Proliferation inhibition often leads to cell death. Therefore, the cytotoxic activity of the compounds was further evaluated using a modified 3-(4,5-dimethylthiazol-2-yl)-2,5-diphenyltetrazolium bromide (MTT) assay, the resazurin (Alamar Blue) assay. Metabolically active cells reduce the non-fluorescent dye resazurin to the fluorescent dye resorufin via mitochondrial reductase activity, which correlates with cell viability. In the first step the metabolic activity of the four isolated flavonoids was investigated, showing a dose-dependent reduction, but to a much lower extent than in the proliferation assays (Table A2). In fact, only 7,3′,4′-trimethoxymyricetin (2) inhibited the metabolic activity of all four cell lines by more than 50% at a concentration of 100 µM.

BC cell line = test system: BC cell line; design: method as in PMID 17089326; conditions: cited from earlier work
B16 = test system: B16; design: method as in PMID 15577239; conditions: cited from earlier work
AMO-1 cells = experiment: Proliferation, [3H]-thymidine uptake, AMO-1; format: cell-based
Procedure: as §1, §2

HL-60 cells = experiment: Metabolic activity, resazurin staining, HL-60; format: cell-based
Procedure: as §1, §2, §3

MOLM-13 cells [2] = experiment: Proliferation, [3H]-thymidine uptake, MOLM-13; format: cell-based
Procedure: [The source words this procedure for another cell line and reports this cell line under the same test.] as §1, §2

[3] = test system: HL-60, MOLM-13, AMO-1, and KMS-12 PE cancer cells; experiment: Proliferation, range over the four tested cancer cell lines; format: cell-based; conditions: HL-60, MOLM-13, AMO-1, KMS-12 PE; read-out: IC50 inhibition of proliferation, range over cell lines
Procedure: Acute myeloid leukemia cell line HL-60 and multiple myeloma cell lines AMO-1 and KMS-12-PE were obtained from the German Collection of Microorganisms and Cell Cultures (DSMZ), Braunschweig, Germany, and non-tumorigenic stromal cell line HS-5 was acquired from the American Type Culture Collection (ATCC, Manassas, VA, USA). All cell lines were cultured in RPMI 1640 medium without phenol red (Pan Biotech, Aidenbach, Germany), supplemented with 2 mM glutamine, 100 U/mL penicillin, 100 µg/mL streptomycin (Sigma-Aldrich, St. Louis, MO, USA), and 10% fetal bovine serum (FBS Maximus, Catus Biotech GmbH, Tutzing, Germany) at 37 °C in a humidified atmosphere of 5% CO2/95% air. […] Cell proliferation was assessed by [^3H]-thymidine uptake. […] Cells were harvested using a semi-automated device, and [^3H]-thymidine incorporation (expressed in counts per minute, cpm) was measured with a scintillation counter (MicroBeta TriLux, PerkinElmer, Waltham, MA, USA). Metabolic activity was assessed by resazurin staining. […] Relative fluorescence units (RFUs) were measured using a Synergy H1 plate reader equipped with a 560 nm excitation/590 nm emission filter set (BioTek; Agilent, Santa Clara, CA, USA). Proliferation and metabolic activity in the absence of compounds were defined as 100% (control), and the values for compound-treated samples were expressed as percentages relative to the control. […]

- IC50 (MOLM-13 cells [1]; Homo sapiens, MOLM-13, 72 h, resazurin, 95% confidence interval in brackets, read-out: IC50 inhibition of metabolic activity): 1000 nM
- IC50 (HL-60 cells; Homo sapiens, HL-60, 72 h, resazurin, 95% confidence interval in brackets, read-out: IC50 inhibition of metabolic activity): 1700 nM
- IC50 (MOLM-13 cells [2]; Homo sapiens, MOLM-13, 72 h, 95% confidence interval in brackets, read-out: IC50 inhibition of proliferation): 1000 nM
- IC50 [3]: 1000 to 1600 nM
SMILES: C=C(C)C(=O)O[C@H]1C[C@@]2(C)OC(=CC2=O)/C(CO)=C\[C@H]2OC(=O)C(=C)[C@H]12 [Compound 5, goyazensolide]
- Selectivity index (metabolic activity) (MOLM-13 cells [1]; IC50 HS-5 / IC50 MOLM-13): 2.6
- IC50 (BC cell line): < 300 nM
- IC50 (B16): 2080 nM
- IC50 (AMO-1 cells; Homo sapiens, AMO1, 72 h, AMO-1, 72 h, 95% confidence interval in brackets, read-out: IC50 inhibition of proliferation): 1600 nM
- Selectivity index (proliferation) (AMO-1 cells; IC50 HS-5 / IC50 AMO-1): 1.2
- Selectivity index (metabolic activity) (HL-60 cells; IC50 HS-5 / IC50 HL-60): 1.5
- Selectivity index (proliferation) (MOLM-13 cells [2]; IC50 HS-5 / IC50 MOLM-13): 2.0
